The compounds below were run against T1, Human Polθ polymerase domain (aa1820-2590) (Homo sapiens, UniProt O75417) (assay: Polθ Polymerase Domain Kinact/KI Assay (PicoGreen)). Details: 0.8 nM Polθ, 100 nM DNA substrate, kobs vs [I] fit for 2-step covalent inhibitor.
T1 construct: Human Polθ polymerase domain (aa1820-2590) was expressed in E. coli; made in house; host or cells: E. coli
T1 sequence (O75417 1820-2590): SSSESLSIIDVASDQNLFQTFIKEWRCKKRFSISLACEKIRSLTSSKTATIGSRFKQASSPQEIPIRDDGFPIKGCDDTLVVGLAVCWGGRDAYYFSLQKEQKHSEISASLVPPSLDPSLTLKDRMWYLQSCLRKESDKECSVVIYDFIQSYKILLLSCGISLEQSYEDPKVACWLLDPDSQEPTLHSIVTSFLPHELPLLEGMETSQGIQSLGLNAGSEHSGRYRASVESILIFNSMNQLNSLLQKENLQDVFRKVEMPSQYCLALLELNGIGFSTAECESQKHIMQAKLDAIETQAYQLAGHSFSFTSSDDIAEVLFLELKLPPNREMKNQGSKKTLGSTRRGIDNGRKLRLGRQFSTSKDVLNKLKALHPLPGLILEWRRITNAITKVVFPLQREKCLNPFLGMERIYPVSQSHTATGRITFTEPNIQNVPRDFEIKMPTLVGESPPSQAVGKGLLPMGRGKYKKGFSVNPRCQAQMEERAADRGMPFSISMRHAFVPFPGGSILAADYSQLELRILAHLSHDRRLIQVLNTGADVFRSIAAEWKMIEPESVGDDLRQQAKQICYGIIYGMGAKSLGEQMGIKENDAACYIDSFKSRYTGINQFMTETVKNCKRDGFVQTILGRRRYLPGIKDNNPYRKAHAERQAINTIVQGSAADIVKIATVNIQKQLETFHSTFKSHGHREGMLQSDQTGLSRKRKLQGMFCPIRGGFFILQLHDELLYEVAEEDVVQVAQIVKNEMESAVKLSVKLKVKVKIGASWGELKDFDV
Type: biochemical
Procedure, shortened: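 Kinact and KI derive from fitting kobs versus [I], where kobs were fitted from EDTA-stopped PicoGreen time courses (up to 60 min) in Tris pH 7.5 buffer with 1% DMSO, 0.8 nM enzyme, 100 nM DNA and […].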

Compound | Kinact/Kl
Cc1cc(C(F)(F)F)cc(N2C(=O)C[C@@H]3CN(CCCOC4CN(C(=O)/C=C/CN(C)C)C4)c4c(C)cccc4N(C)C(=O)[C@H]32)n1 [Example 169, (3aR,11aS)-5-(3-((1-((E)-4-(dimethylamino)but-2-enoyl)azetidin-3-yl)oxy)propyl)-6,10-dimethyl-1-(6-methyl-4-(trifluoromethyl)pyridin-2-yl)-1,3a,4,5,10,11a-hexahydro-2H-benzo[b]pyrrolo[2,3-f][1,4]diazocine-2,11(3H)-dione] | 2.69e+06 M⁻¹ s⁻¹
C=CC(=O)NC1Cc2ccc(CN3C[C@H]4CC(=O)N(c5cc(C(F)(F)F)cc(C)n5)[C@@H]4C(=O)N(C)c4cccc(Cl)c43)cc2C1 (stereo partly drawn) [Example 286, N-(5-(((3aR,11aS)-6-chloro-10-methyl-1-(6-methyl-4-(trifluoromethyl)pyridin-2-yl)-2,11-dioxo-1,2,3,3a,4,10,11,11a-octahydro-5H-benzo[b]pyrrolo[2,3-f][1,4]diazocin-5-yl)methyl)-2,3-dihydro-1H-inden-2-yl)acrylamide] | 610000 M⁻¹ s⁻¹
Cc1cc(C(F)(F)F)cc(N2C(=O)C[C@@H]3CN(Cc4ccc(NC(=O)/C=C/CN(C)C)c(F)c4)c4c(Cl)cccc4N(C)C(=O)[C@H]32)n1 [Example 245, (E)-N-(4-(((3aR,11aS)-6-chloro-10-methyl-1-(6-methyl-4-(trifluoromethyl)pyridin-2-yl)-2,11-dioxo-1,2,3,3a,4,10,11,11a-octahydro-5H-benzo[b]pyrrolo[2,3-f][1,4]diazocin-5-yl)methyl)-2-fluorophenyl)-4-(dimethylamino)but-2-enamide] | 1.9e+06 M⁻¹ s⁻¹
C=CC(=O)N1CCN2CCN(CCN3C[C@H]4CC(=O)N(c5cc(C(F)(F)F)cc(C)n5)[C@@H]4C(=O)N(C)c4cccc(Cl)c43)CC2C1 (stereo partly drawn) [Example 14, (3aR,11aS)-5-(2-(8-acryloyloctahydro-2H-pyrazino[1,2-a]pyrazin-2-yl)ethyl)-6-chloro-10-methyl-1-(6-methyl-4-(trifluoromethyl)pyridin-2-yl)-1,3a,4,5,10,11a-hexahydro-2H-benzo[b]pyrrolo[2,3-f][1,4]diazocine-2,11(3H)-dione] | 2.05e+06 M⁻¹ s⁻¹
C=C(CN(C)C)C(=O)N1CC(C(=O)N(C)CCN2C[C@H]3CC(=O)N(c4cc(C(F)(F)F)cc(C)n4)[C@@H]3C(=O)N(C)c3cccc(Cl)c32)C1 [Example 65, N-(2-((3aR,11aS)-6-chloro-10-methyl-1-(6-methyl-4-(trifluoromethyl)pyridin-2-yl)-2,11-dioxo-1,2,3,3a,4,10,11,11a-octahydro-5H-benzo[b]pyrrolo[2,3-f][1,4]diazocin-5-yl)ethyl)-1-(2-((dimethylamino)methyl)acryloyl)-N-methylazetidine-3-carboxamide] | 4.96e+06 M⁻¹ s⁻¹
C=C(CN(C)C)C(=O)N1CC(OCCCN2C[C@H]3CC(=O)N(c4cc(C(F)(F)F)cc(C)n4)[C@@H]3C(=O)Nc3cccc(C)c32)C1 [Example 191, (3aR,11aS)-5-(3-((1-(2-((dimethyl-amino)methyl)-acryloyl)azetidin-3-yl)oxy)propyl)-6-methyl-1-(6-methyl-4-(trifluoro-methyl)pyridin-2-yl)-1,3a,4,5,10, 11a-hexahydro-2H-benzo[b]pyr-rolo[2,3-f][1,4] diazocine-2, 11(3H)-dione] | 1.4e+06 M⁻¹ s⁻¹
C=CC(=O)N1Cc2ccc(CN3C[C@H]4CC(=O)N(c5cc(C(F)(F)F)cc(C)n5)[C@@H]4C(=O)N(C)c4cccc(Cl)c43)nc2C1 [Example 276, (3aR,11aS)-5-((6-acryloyl-6,7-dihydro-5H-pyrrolo[3,4-b]pyridin-2-yl)methyl)-6-chloro-10-methyl-1-(6-methyl-4-(trifluoromethyl)pyridin-2-yl)-1,3a,4,5,10,11a-hexahydro-2H-benzo[b]pyrrolo[2,3-f][1,4]diazocine-2,11(3H)-dione] | 1.76e+06 M⁻¹ s⁻¹
C=C(CN(C)C)C(=O)NCCOCCN1C[C@H]2CC(=O)N(c3cc(C(F)(F)F)cc(C)n3)[C@@H]2C(=O)N(C)c2cccc(C)c21 [Example 85, N-(2-(2-((3aR,11aS)-6,10-dimethyl-1-(6-methyl-4-(trifluoromethyl)pyridin-2-yl)-2,11-dioxo-1,2,3,3a,4,10,11,11a-octahydro-5H-benzo[b]pyrrolo[2,3-f][1,4]diazocin-5-yl)ethoxy)ethyl)-2-((dimethylamino)methyl)acrylamide] | 1.82e+06 M⁻¹ s⁻¹
C=CC(=O)N1Cc2ccc(CN3C[C@H]4CC(=O)N(c5cc(C(F)(F)F)cc(C)n5)[C@@H]4C(=O)N(C)c4cccc(C)c43)cc2C1 [Example 313, (3aR,11aS)-5-((2-acryloylisoindolin-5-yl)methyl)-6,10-dimethyl-1-(6-meth-yl-4-(trifluorometh-yl)pyridin-2-yl)-1,3a,4,5,10,11a-hexahydro-2H-benzo [b]pyrrolo[2,3-f] [1,4]diazocine-2,11(3H)-dione] | 660000 M⁻¹ s⁻¹
C=CC(=O)N1Cc2nc(CN3C[C@H]4CC(=O)N(c5cc(C(F)(F)F)cc(C)n5)[C@@H]4C(=O)N(C)c4cccc(C)c43)sc2C1 [Example 315, (3aR,11aS)-5-((5-acryloyl-5,6-di-hydro-4H-pyrrolo [3,4-d]thiazol-2-yl)-methyl)-6,10-dimeth-yl-1-(6-methyl-4-(trifluoromethyl)-pyridin-2-yl)-1,3a,4,5,10,11a-hexahydro-2H-benzo[b]pyrrolo [2,3-f][1,4]diazocine-2,11(3H)-dione] | 1.79e+06 M⁻¹ s⁻¹
C=CC(=O)N1CC(n2cnc(CN3C[C@H]4CC(=O)N(c5cc(C(F)(F)F)cc(C)n5)[C@@H]4C(=O)N(C)c4cccc(Cl)c43)c2)C1 [Example 39, (3aR,11aS)-5-((1-(1-acryloylazetidin-3-yl)-1H-imidazol-4-yl)methyl)-6-chloro-10-methyl-1-(6-methyl-4-(trifluoromethyl)pyridin-2-yl)-1,3a,4,5,10,11a-hexahydro-2H-benzo[b]pyrrolo[2,3-f][1,4]diazocine-2,11(3H)-dione] | 3.42e+06 M⁻¹ s⁻¹
C=CC(=O)N1CCn2nc(CN3C[C@H]4CC(=O)N(c5cc(C(F)(F)F)cc(C)n5)[C@@H]4C(=O)N(C)c4cccc(C)c43)nc2C1 [Example 202, (3aR,11aS)-5-((7-acryloyl-5,6,7,8-tetrahydro-[1,2,4]triazolo [1,5-a]pyrazin-2-yl)methyl)-6,10-dimethyl-1-(6-methyl-4-(trifluoromethyl)pyridin-2-yl)-1,3a,4,5,10,11a-hexahydro-2H-benzo[b]pyrrolo [2,3-f][1,4]diazocine-2,11(3H)-dione] | 5.56e+06 M⁻¹ s⁻¹
C=CC(=O)N1CC2(CN(CCN3C[C@H]4CC(=O)N(c5cc(C(F)(F)F)cc(C)n5)[C@@H]4C(=O)N(C)c4cccc(F)c43)C[C@H]3COCCN32)C1 (racemic) [Example 24b, (3aR,11aS)-5-(2-((S/R)-1-acryloyltetrahydro-1′H-spiro[azetidine-3,6′-pyrazino[2,1-c][1,4]oxazin]-8′(7′H)-yl)ethyl)-6-fluoro-10-methyl-1-(6-methyl-4-(trifluoromethyl)pyridin-2-yl)-1,3a,4,5,10,11a-hexahydro-2H-benzo[b]pyrrolo[2,3-f][1,4]diazocine-2, 11(3H)-dione] | 290000 M⁻¹ s⁻¹

Second part, the compound after the results:

Kinact/Kl | Compound
1.73e+06 M⁻¹ s⁻¹ | C=C(CN(C)C)C(=O)N[C@@H]1CCc2nc(CN3C[C@H]4CC(=O)N(c5cc(C(F)(F)F)cc(C)n5)[C@@H]4C(=O)N(C)c4cccc(C)c43)cn2C1 (mixture of isomers) [Example 329a, N-((R/S)-2-(((3aR, 11aS)-6,10-dimethyl-1-(6-methyl-4-(tri-fluoromethyl)pyridin-2-yl)-2,11-dioxo-1,2,3,3a,4,10,11,11a-octahydro-5H-benzo [b]pyrrolo[2,3-f][1,4]diazocin-5-yl)methyl)-5,6,7,8-tetrahydro-imidazo[1,2-a]pyridin-6-yl)-2-((dimethyl-amino)methyl)acryl-amide]
870000 M⁻¹ s⁻¹ | C=CC(=O)N1CC(N2CC[C@H](CN3C[C@H]4CC(=O)N(c5cc(C(F)(F)F)cc(C)n5)[C@@H]4C(=O)N(C)c4cccc(Cl)c43)[C@@H](C#N)C2)C1 (single isomer, unassigned) [Example 226b]
900000 M⁻¹ s⁻¹ | C#CC(=O)N1Cc2nc(CN3C[C@H]4CC(=O)N(c5cc(C(F)(F)F)cc(C)n5)[C@@H]4C(=O)N(C)c4cccc(Cl)c43)cn2C[C@@H]1C (racemic) [Example 172a, (3aR,11aS)-6-chloro-10-meth-yl-1-(6-methyl-4-(trifluorometh-yl)pyridin-2-yl)-5-(((S/R)-6-meth-yl-7-propioloyl-5,6,7,8-tetra-hydroimidazo [1,2-a]pyrazin-2-yl)methyl)-1,3a, 4,5,10,11a-hexa-hydro-2H-benzo [b]pyrrolo[2,3-f] [1,4]diazocine-2,11(3H)-dione]

Reference: US20250230165A1, “HETEROCYCLIC COMPOUNDS FOR USE IN THE TREATMENT OF CANCER” (ARTIOS PHARMA LIMITED, priority 2021, published 2025)
